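All cell lines were grown in 96-well plates and treated with compound for 48 hours. The concentration for 50% growth inhibition is given as GI50. At the TGI there is no net growth.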

Some test systems named below: COLO 205 colon; M14 melanoma; SN12C renal; DU-145 prostate; HS 578T breast; SK-MEL-5 melanoma; SW-620 colon; HT29 colon; IGROV1 ovarian; SF-268 CNS; RXF 393 renal; SR leukemia; A549 NSCLC; LOX IMVI melanoma; MCF7 breast.
Assay in all cases: NCI-60 cell line screen, 48 h

With `COc1ccc(OC)c(N=Cc2cc(OC)c(OC)c(OC)c2)c1`, the TGI with COLO 205 colon, in the test with M14 melanoma, in the test with SN12C renal, with DU-145 prostate, in the test with HS 578T breast and in the test with SK-MEL-5 melanoma was > 100 µM each time. Besides, the TGI with SW-620 colon, with HT29 colon, in the test with IGROV1 ovarian, with SF-268 CNS, in the test on RXF 393 renal and with SR leukemia was > 100 µM each time. Moreover, the TGI in the test on A549 NSCLC, in the test on LOX IMVI melanoma and with MCF7 breast was > 100 µM each time.

`CC(O)CC(=O)CO[C@H]1[C@H](O)[C@@H](O)[C@@H](O)[C@@H]2NC(=O)c3c(cc4c(c3O)OCO4)[C@H]21` (stereo not given in full): the TGI in the test with COLO 205 colon amounted to 0.135 µM; in the test on M14 melanoma, 0.149 µM; with SN12C renal, 0.784 µM; in the test on DU-145 prostate it was 0.0818 µM; in the test with HS 578T breast, 0.153 µM; in the test on SK-MEL-5 melanoma, 0.0623 µM. Moreover, the TGI in the test on SW-620 colon was > 100 µM; with HT29 colon, 0.179 µM; in the test with IGROV1 ovarian, 0.256 µM; in the test with SF-268 CNS, 0.0626 µM; with RXF 393 renal, 0.131 µM; with SR leukemia it was 0.125 µM. Moreover, the values for the TGI in the test on A549 NSCLC, with LOX IMVI melanoma and with MCF7 breast were 0.352 µM, 0.117 µM and 0.461 µM, respectively.

For `C[C@@H](Oc1ccc(Oc2cnc3ccc(Cl)cc3n2)cc1)C(=O)O`, the TGI in the test with COLO 205 colon, in the test with M14 melanoma, with SN12C renal, in the test with DU-145 prostate, in the test on HS 578T breast and with SK-MEL-5 melanoma was > 100 µM throughout. Moreover, the TGI in the test with SW-620 colon, in the test on HT29 colon, with IGROV1 ovarian, in the test with SF-268 CNS, with RXF 393 renal and in the test with SR leukemia was > 100 µM in each case. The TGI with A549 NSCLC, in the test with LOX IMVI melanoma and in the test with MCF7 breast was > 100 µM each time. For the same molecule, the GI50 in the test with HS 578T breast was 69.6 µM; with SK-MEL-5 melanoma, > 82.1 µM; in the test on RXF 393 renal, > 30.5 µM; in the test with SR leukemia, > 24.3 µM; in the test with MCF7 breast, 18.3 µM.

As to `O=C(/C=C\c1ccsc1)c1ccccc1`, the TGI in the test on COLO 205 colon came out at 30.5 µM; with M14 melanoma, 21.8 µM; with SN12C renal, 24.6 µM; in the test with DU-145 prostate, 25.4 µM; with HS 578T breast, 20.4 µM; in the test on SK-MEL-5 melanoma it was 27.3 µM. Moreover, the TGI in the test on SW-620 colon is 12.3 µM; with HT29 colon, 15.5 µM; in the test with IGROV1 ovarian it was 22.2 µM; with SF-268 CNS, 21.8 µM; in the test with RXF 393 renal it was 18.7 µM; in the test with SR leukemia, > 21.7 µM. The TGI in the test on A549 NSCLC turned out to be 8.48 µM; with LOX IMVI melanoma, 7.58 µM; in the test with MCF7 breast it was 6.72 µM.

On to `CCCCCCc1cc2cc(C(=O)NCc3ccccc3)c(=N)oc2cc1O`, for which the TGI in the test with COLO 205 colon, in the test with M14 melanoma, in the test with SN12C renal, with DU-145 prostate, in the test on HS 578T breast and in the test on SK-MEL-5 melanoma was > 100 µM throughout. The TGI with SW-620 colon, in the test with HT29 colon, with IGROV1 ovarian, in the test on SF-268 CNS, with RXF 393 renal and in the test on SR leukemia was > 100 µM each time. Further, the TGI in the test on A549 NSCLC, in the test on LOX IMVI melanoma and in the test with MCF7 breast was > 100 µM throughout.

Values taken from PubChem BioAssay (NCI).
